Measured values published in patent US20250340941A1, “ASSAY AND METHODS FOR DRUG DISCOVERY” (BIOVIE INC., priority 2023, published 2025).

What was measured:
Monocytes = experiment: Blood monocyte frequency, 3-month open-label phase 2 study; format: in vivo, human
Procedure: (§1) Result: The subject's SkinBloodAge clock closely matched their chronological age at baseline (mean 71.5 vs 70.8 years). After 3 months of NE3107 (20 mg BID), the SkinBloodAge decreased by a mean of 3.3 years (Table). […] Leptin is reportedly lower in AD, and DNAmLeptin is reported to be positively correlated with metabolic parameters waist/hip ratio, BMI, CRP, insulin, glucose and triglycerides (Lu 2022 Aging 14:9884). […] DNAmPack Years is reported to be negatively correlated with time to mortality in both smokers and nonsmokers, and positively correlated with waist/hip ratio, CRP and triglycerides. Monocyte DNAm was correlated with monocyte frequency at baseline, and although it is reported to increases with chronological age, it decreased (−29%) in 77% of subjects after 3 months treatment. […]

[1] = Phase 3 trial: adverse events; format: in vivo, human; conditions: blinded (IP or placebo not known)
Source text: Of the 439 subjects enrolled in the study, 156 experienced 1 or more AEs (35.5%). There were only 43 (9.8%) related AEs with the majority 42 […] categorized as non-serious AEs by the principal investigator. The study also had very low rate of serious AEs reported. There were 12 (2.7%) reported for the duration of the study. […] As this is a blinded analysis it is not known if the subjects was on IP or placebo.

[2] = test system: TNFR1 phosphorylation in THP-1 human monocytes; experiment: TNFa-stimulated TNFR1 ERK-dependent phosphorylation, Western blot densitometry; format: cell-based; conditions: THP-1, TNFa 50 ng/mL
Procedure: THP-1 monocytes were treated with 100 nM NE3107, 1 uM IKK-16 (IKK inhibitor), 1 uM Tpl2 Kinase inhibitor (TPL2i) or Vehicle (0.1% DMSO) and stimulated with TNFa 50 ng/mL. Cell lysates were collected at 0, 2, 5, 10, 15, and 30 minutes. The results are given as fold change with respect to the control following Western blotting and quantification of band intensities by densitometry scanning.
THP-1 human monocytes were grown in complete growth medium (ATCC-formulated RPMI-1640 Medium, Catalog No. 30-2001), 2-mercaptoethanol to a final concentration of 0.05 mM and fetal bovine serum to final concentration of 10%. THP-1 human monocytes were then seeded into 10 mL complete growth medium at 0.4×10^6/mL in a T25 flask and were grown to 0.8×10^6/mL in about 1 to 2 days. The cells were then starved in 0.5% FBS RPMI for 16 h. The THP-1 monocytes were then treated with 100 nM 17α-ethynylandrost-5-ene-3ϕ3,7ϕ3,17ϕ3-triol (NE3107), 1 μM IKK-16 (IKK inhibitor), 1 μM Tpl2 Kinase inhibitor (TPL2i) or 0.1% DMSO (vehicle). Cells were stimulated with stimulated with 50 ng/mL TNFa and cell lysates were collected at 0, 2, 5, 10, 15, and 30 minutes after TNFa stimulation. Total cell lysates were subjected to Western blotting as described in Lu et al., Mol. Endocrinol. 22 (2008), 760-771. Relative band intensities were quantified by densitometry scanning. The results are given as fold change with respect to untreated cells in Table 2.

[3] = Phase 3 trial: imaging sub-study vMRI; format: in vivo, human; conditions: Phase 3 imaging sub-study, 23 subjects, blinded analysis; result in words
Procedure: Subjects were analyzed using imaging sub-studies vMRI on 23 subjects. It was observed that the volume was increased in the hippocampus and amygdala. In addition, it was observed that a decreased CGIC was correlated with decreased hippocampi volume and increased MCP-1 was correlated with increased whole cortex. The results are described in FIGS. 4A-4B and Table 6.

[4] = Phase 3 trial (NM101, NCT04669028): metabolic changes, blinded assessment; format: in vivo, human
Source text: In this example, the clinical outcomes from a Phase 3, randomized, placebo-controlled trial of NE3107 (17α-ethynylandrost-5-ene-3ϕ3,7ϕ3,17ϕ3-triol) in subjects with mild to moderate probable Alzheimer's disease.
Recently, the roles of inflammation and insulin resistance in neurodegeneration have become better appreciated. […] We describe the rationale and design of NM101, the first randomized, multicenter Phase III clinical study to examine the safety and efficacy of 30-week treatment with NE3107 versus placebo in elderly adults with mild-to-moderate Alzheimer's disease. Patients (316) will be randomized in a 1:1 ratio. The co-primary end points measure cognitive function and functional and behavioral characteristics (Clinical Dementia Rating Scale Sum of Boxes, CDR-SB) and cognitive function (ADAS Cog12). Trial registration number: NCT04669028 (Clinicaltrials.gov).
Subjects metabolic and correlation changes were analyzed. Many of the genes associated with LOAD (late onset Alzheimer's disease) are related to cholesterol metabolism, which is decreased in AD neuron membranes. Insulin and glycemic controls are known to be involved in neurodegeneration. […] Increased mean amplitude of glycemic excursion (MAGE from CGM) increased risk of Alzheimer's disease progression. Leptin is an anti-inflammatory, neuroprotective and is decreased in AD. […] The results are described in Tables 4 and 5.

[5] = Phase 3 trial: neuropsychiatric inventory; format: in vivo, human; conditions: Phase 3, blinded analysis (NE3107 and placebo not separated)
Procedure: Subjects were analyzed for neuropsychiatric inventory. […] An improvement in appetite was also correlated with decreased Cog12, CDR SB and ADCOMS, with increased Alzheimer's disease. A decrease in anxiety was correlated with an increase ADL and decreased CGIC. Sleep improvement was correlated with a decrease in CGIC and decreased in TNFa. The results are described in Table 8 and FIGS. 6A-6B.

[6] = test system: Horvath Clock DNA methylation (DNAm); experiment: Horvath Clock DNA methylation (DNAm) epigenetic analysis of whole blood, 3-month open-label phase 2 study (NCT05007820); format: in vivo, human
Source text: NE3107 is an oral small molecule, blood-brain permeable anti-inflammatory insulin sensitizer that binds ERK, inhibits NFKB and TNF signaling, and is in clinical studies for Probable AD (NCT04669028) and Parkinson's disease (NCT05083260). Safety, clinical, biomarker and neuroimaging results from a 3-month open-label phase 2 study of NE3107 treatment of MCI and probable AD (NCT05007820) were reported at CTAD (2022 J. Prev. Alzheimers Dis 9 S86, S140 and S27). In this example, the inventors determined the results of epigenetic clock studies from NCT05007820.
Methods: Subjects with clinical dementia rating (CDR) 0.5-1 were consented, and whole blood was drawn, frozen and shipped for Horvath Clock DNA methylation (DNAm) epigenetic analysis (Horvath 2018 Aging 10:1758) at baseline and 3 months.
as §1

[7] = Phase 3 trial: FDG-PET imaging; format: in vivo, human; conditions: Phase 3, blinded analysis; subjects with a baseline whole cortex suvr <1.29, n/N
Procedure: Subjects were analyzed using a fluorodeoxyglucose (FDG)-positron emission tomography (PET) imaging scans. FDG-PET standardized uptake value ratios (“suvr”) were increased in 14/24 subjects with a baseline whole cortex suvr <1.29. […] Cholesterol increases trended with increased Cingulate suvr. The results are described in Table 7 and FIG. 5.

[8] = After 3 months of NE3107 (20 mg BID), result in words
[9] = NE3107 20 mg BID, 3 months vs baseline
[10] = NE3107 20 mg BID, 3 months vs baseline, mean
[11] = NE3107 20 mg BID, 3 months, mean
[12] = Phase 3, blinded analysis (NE3107 and placebo not separated)
[13] = Phase 3, blinded analysis, result in words
[14] = After 3 months of NE3107 (20 mg BID), size of decrease
[15] = Blood Cell Frequency, 3 months vs baseline, mean
[16] = Blood Cell Frequency, NE3107 20 mg BID, 3 months, mean
[17] = NE3107 20 mg BID, 3 months, n/N subjects

C#C[C@]1(O)CC[C@H]2[C@@H]3[C@@H](O)C=C4C[C@@H](O)CC[C@]4(C)[C@H]3CC[C@@]21C [NE3107, 17α-ethynylandrost-5-ene-3ϕ3,7ϕ3,17ϕ3-triol]
change in monocyte frequency (Monocytes; [8]): no significant change | Monocytes, Change (%) (Monocytes; [9]): (1.5%) | Monocytes, Change (Monocytes; [10]): −0.001 Freq | Monocytes, 3 Months (Monocytes; [11]): 0.085 Freq | related AEs ([1]; Phase 3, 439 subjects enrolled): 9.8% | related AEs categorized as non-serious ([1]; Phase 3, 439 subjects enrolled): 0.6% | serious AEs reported ([1]; Phase 3, 439 subjects enrolled): 2.7% | subjects discontinued due to a reported AE ([1]; Phase 3, 439 subjects enrolled): 1.8% | subjects who experienced 1 or more AEs ([1]; Phase 3, 439 subjects enrolled): 35.5% | serious AEs that resulted in death ([1]; Phase 3, count): 1 | Fold vs DMSO control P-TNFR1/Actin in Gel2 ([2]; 100 nM, 0 min): 0.32 fold | Fold vs DMSO control P-TNFR1/TNFR1 in Gel2 ([2]; 100 nM, 0 min): 0.27 fold | Fold vs DMSO control P-TNFR1/Actin in Gel2 ([2]; 100 nM, 15 min): 0.79 fold | Fold vs DMSO control P-TNFR1/TNFR1 in Gel2 ([2]; 100 nM, 15 min): 0.57 fold | Fold vs DMSO control P-TNFR1/Actin in Gel2 ([2]; 100 nM, 30 min): 0.23 fold | Fold vs DMSO control P-TNFR1/TNFR1 in Gel2 ([2]; 100 nM, 30 min): 0.17 fold | vMRI volume in the hippocampus and amygdala [3]: increased | HOMA2-% B, Change from Baseline [4, 12]: +13.5%, * | HOMA2-% S, Change from Baseline [4, 12]: −21.2%, * | Insulin, Change from Baseline [4, 12]: +1.9 μIU/mL | Leptin, V10 median [4, 12]: 29.2 ng/mL | MAGE, Change from Baseline ([4]; Phase 3, blinded analysis (NE3107 and placebo not separated), from CGM): -0.57 mg/dL | Leptin DNAm [4, 13]: observed to increase | cases of hypoglycemia [4, 13]: no cases of hypoglycemia | Cholesterol, Change from Baseline ([4]; Phase 3, mild to moderate probable AD, blinded analysis (NE3107 and placebo subjects not separated)): +3.0 mg/dL | neuropsychiatric inventory: overall improvement in appetite [5]: −1.0 | neuropsychiatric inventory: overall improvement in sleep [5]: −1.0 | DNAmCD4Tcell, Change (%) ([6]; 3 months vs baseline): (18%) | DNAmCD8Tcell, Change (%) ([6]; 3 months vs baseline): (12%) | DNAmGranulocyte, Change (%) ([6]; 3 months vs baseline): (2.2%) | DNAmNKcell, Change (%) ([6]; 3 months vs baseline): (0.5%) | changes in DNAmT, DNAmNK or DNAmGran [6, 8]: no significant changes | DNAmPackYears decreased by [6, 14]: 39% | SkinBloodAge decreased by a mean of [6, 14]: 3.3 years | DNAmCD4Tcell, Change [6, 15]: −0.033 | DNAmCD8Tcell, Change [6, 15]: −0.002 | DNAmGranulocyte, Change [6, 15]: −0.015 | DNAmNKcell, Change [6, 15]: −0.0003 | DNAmCD4Tcell, 3 Months [6, 16]: 0.152 | DNAmCD8Tcell, 3 Months [6, 16]: 0.013 | DNAmGranulocyte, 3 Months [6, 16]: 0.653 | DNAmNKcell, 3 Months [6, 16]: 0.063 | DNAmPackYears, Change (%) [6, 9]: (39%) | DNAmSkinBlood, Change (%) [6, 9]: (−4.6%) | DNAmMonocytes, Change [6, 10]: −0.022 Freq | DNAmPackYears, Change [6, 10]: −9.4 | DNAmSkinBlood, Change [6, 10]: −3.3 years | DNAmSkinBlood, 3 Months ([6]; NE3107 20 mg BID, 3 months, MCI/probable AD subjects (CDR 0.5-1), whole blood, mean): 67.5 years | DNAmMonocytes, 3 Months [6, 11]: 0.054 Freq | DNAmPackYears, 3 Months [6, 11]: 14.6 | DNAmLeptin, Frequency (subjects with decrease) [6, 17]: 22/22 | DNAmMonocytes, Frequency (subjects with decrease) [6, 17]: 17/22 | DNAmPackYears, Frequency (subjects with decrease) [6, 17]: 21/22 | DNAmSkinBlood, Frequency (subjects with decrease) [6, 17]: 19/22 | subjects with increased FDG-PET standardized uptake value ratios (suvr) [7]: 14/24

O=C(c1ccc(Nc2nccc(-c3cc4ccccc4s3)n2)cc1)N1CCC(N2CCCC2)CC1 [IKKi, IKK-16, reference compound]
Fold vs DMSO control P-TNFR1/Actin in Gel2 ([2]; 1 μM, 0 min): 2.09 fold | Fold vs DMSO control P-TNFR1/TNFR1 in Gel2 ([2]; 1 μM, 0 min): 2.92 fold | Fold vs DMSO control P-TNFR1/Actin in Gel2 ([2]; 1 μM, 15 min): 0.92 fold | Fold vs DMSO control P-TNFR1/TNFR1 in Gel2 ([2]; 1 μM, 15 min): 0.59 fold | Fold vs DMSO control P-TNFR1/Actin in Gel2 ([2]; 1 μM, 30 min): 0.49 fold | Fold vs DMSO control P-TNFR1/TNFR1 in Gel2 ([2]; 1 μM, 30 min): 0.30 fold
